US20120029187A1, “HALOALKYLSULFONANILIDE DERIVATIVE” (Nissan Chemical Industries, Ltd., priority 2009, published 2012)

Experiments:
Type in all cases: in vivo
bulrush [1] = test: Test Example 2: herbicidal effects during the vegetation period under submerged conditions; conditions: treatment during the vegetation period under submerged conditions; dose 2.52 g/a
Procedure, shortened: (§1)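 Barnyardgrass, bulrush and ducksalad were co-sown in alluvial soil flooded to 4 cm and grown in a greenhouse at 25 to 30° C. At the 1- or 2-leaf stage, water-diluted emulsifiable concentrates went onto the water surface at set doses (g/a). Herbicidal effect was scored three weeks later on a graded scale.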

barnyardgrass [2] = test: as above; conditions: treatment during the vegetation period under submerged conditions; dose 2.52 g/a
Procedure, shortened: as §1

ducksalad [3] = test: as above; conditions: treatment during the vegetation period under submerged conditions; dose 2.52 g/a
Procedure, shortened: as §1

velvetleaf [4] = test: Test Example 3: herbicidal effects in soil treatment; conditions: dose 3.2 g/a
Procedure, shortened: (§2)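 Seeds were sown in sterilized diluvial soil and covered with about 1.5 cm of soil. Compounds, formulated as emulsifiable concentrates and diluted with water, were sprayed evenly over the soil surface at set doses in g/a. Herbicidal effect was scored on a rating scale three weeks later.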

wild oat [5] = test: as above; conditions: dose 3.2 g/a
Procedure, shortened: as §2

common chickweed [6] = test: as above; conditions: dose 3.2 g/a
Procedure, shortened: as §2

Italian ryegrass [7] = test: as above; conditions: dose 3.2 g/a
Procedure, shortened: as §2

barnyardgrass [8] = test: as above; conditions: dose 3.2 g/a
Procedure, shortened: as §2

common ragweed [9] = test: as above; conditions: dose 3.2 g/a
Procedure, shortened: as §2

water foxtail [10] = test: as above; conditions: dose 3.2 g/a
Procedure, shortened: as §2

large crabgrass [11] = test: as above; conditions: dose 3.2 g/a
Procedure, shortened: as §2

redroot pigweed [12] = test: as above; conditions: dose 3.2 g/a
Procedure, shortened: as §2

common lambsquater [13] = test: as above; conditions: dose 3.2 g/a
Procedure, shortened: as §2

giant foxtail [14] = test: as above; conditions: dose 3.2 g/a
Procedure, shortened: as §2

posumbu knotweed [15] = test: as above; conditions: dose 3.2 g/a
Procedure, shortened: as §2

transplanted rice = test: Test Example 1: preemergence treatment under submerged conditions, effect on crop; conditions: dose 2.52 g/a
Procedure, shortened: (§3)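 Weed seeds and 2.5-leaf rice seedlings shared each flooded cup of alluvial soil. Dosing, expressed as g per are, was by pouring water-diluted emulsifiable concentrate onto the surface on sowing day. Mortality was graded 0 to 5 after three weeks' growth.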

velvetleaf [16] = test: Test Example 4: herbicidal effect in foliage treatment; conditions: dose 3.2 g/a, three weeks after the application
Procedure, shortened: (§4)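 Doses are given in grams per are of applied compound, sprayed as water-diluted emulsifiable concentrate onto foliage of 14-day-old plants grown at 25 to 30° C. Herbicidal activity was assessed visually on a rating scale after three weeks.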

wild oat [17] = test: as above; conditions: dose 3.2 g/a, three weeks after the application
Procedure, shortened: as §4

common chickweed [18] = test: as above; conditions: dose 3.2 g/a, three weeks after the application
Procedure, shortened: as §4

Italian ryegrass [19] = test: as above; conditions: dose 3.2 g/a, three weeks after the application
Procedure, shortened: as §4

barnyardgrass [20] = test: as above; conditions: dose 3.2 g/a, three weeks after the application
Procedure, shortened: as §4

common ragweed [21] = test: as above; conditions: dose 3.2 g/a, three weeks after the application
Procedure, shortened: as §4

water foxtail [22] = test: as above; conditions: dose 3.2 g/a, three weeks after the application
Procedure, shortened: as §4

large crabgrass [23] = test: as above; conditions: dose 3.2 g/a, three weeks after the application
Procedure, shortened: as §4

redroot pigweed [24] = test: as above; conditions: dose 3.2 g/a, three weeks after the application
Procedure, shortened: as §4

common lambsquater [25] = test: as above; conditions: dose 3.2 g/a, three weeks after the application
Procedure, shortened: as §4

beadstraw = test: as above; conditions: dose 3.2 g/a, three weeks after the application
Procedure, shortened: as §4

giant foxtail [26] = test: as above; conditions: dose 3.2 g/a, three weeks after the application
Procedure, shortened: as §4

posumbu knotweed [27] = test: as above; conditions: dose 3.2 g/a, three weeks after the application
Procedure, shortened: as §4

bulrush [28] = test: Test Example 1: herbicidal effects in preemergence treatment under submerged conditions; conditions: dose 2.52 g/a
Procedure, shortened: as §3

barnyardgrass [29] = test: as above; conditions: dose 2.52 g/a
Procedure, shortened: as §3

ducksalad [30] = test: as above; conditions: dose 2.52 g/a
Procedure, shortened: as §3

Row | SMILES | B: bulrush, herbicidal effect (evaluation scale 0-5) (bulrush [1]) | A: barnyardgrass, herbicidal effect (evaluation scale 0-5) (barnyardgrass [2]) | C: ducksalad, herbicidal effect (evaluation scale 0-5) (ducksalad [3]) | herbicidal effect, I: velvetleaf (velvetleaf [4]) | herbicidal effect, F: wild oat (wild oat [5]) | herbicidal effect, N: common chickweed (common chickweed [6]) | herbicidal effect, H: Italian ryegrass (Italian ryegrass [7]) | herbicidal effect, A: barnyardgrass (barnyardgrass [8]) | herbicidal effect, J: common ragweed (common ragweed [9]) | herbicidal effect, G: water foxtail (water foxtail [10]) | herbicidal effect, D: large crabgrass (large crabgrass [11]) | herbicidal effect, K: redroot pigweed (redroot pigweed [12]) | herbicidal effect, L: common lambsquater (common lambsquater [13]) | herbicidal effect, E: giant foxtail (giant foxtail [14]) | herbicidal effect, M: posumbu knotweed (posumbu knotweed [15]) | a: transplanted rice, effect on crop (evaluation scale 0-5) (transplanted rice) | I: velvetleaf, herbicidal effect (velvetleaf [16]) | F: wild oat, herbicidal effect (wild oat [17]) | N: common chickweed, herbicidal effect (common chickweed [18]) | H: Italian ryegrass, herbicidal effect (Italian ryegrass [19]) | further results
1 | CCN1COCN(Cc2ccccc2N(C(=O)OCCCl)S(=O)(=O)C(F)(F)F)C1=O [IV-7] | 5 (mortality of 90% or above (nearly complete death)) | 5 (mortality of 90% or above (nearly complete death)) | 5 (mortality of 90% or above (nearly complete death)) | 5 (mortality of 90% or above (nearly complete death)) | 1 (mortality of at least 5% and less than 20%) | 4 (mortality of at least 70% and less than 90%) | 4 (mortality of at least 70% and less than 90%) | 5 (mortality of 90% or above (nearly complete death)) | 0 (mortality of less than 5% (almost ineffective)) | 5 (mortality of 90% or above (nearly complete death)) | 5 (mortality of 90% or above (nearly complete death)) | 1 (mortality of at least 5% and less than 20%) | 4 (mortality of at least 70% and less than 90%) | 3 (mortality of at least 40% and less than 70%) | 0 (mortality of less than 5% (almost ineffective)) | 0 (mortality of less than 5% (almost ineffective)) | 4 (mortality of at least 70% and less than 90%) | 0 (mortality of less than 5% (almost ineffective)) | 4 (mortality of at least 70% and less than 90%) | 3 (mortality of at least 40% and less than 70%) | A: barnyardgrass, herbicidal effect (barnyardgrass [20]): 4 (mortality of at least 70% and less than 90%); J: common ragweed, herbicidal effect (common ragweed [21]): 3 (mortality of at least 40% and less than 70%); G: water foxtail, herbicidal effect (water foxtail [22]): 5 (mortality of 90% or above (nearly complete death)); D: large crabgrass, herbicidal effect (large crabgrass [23]): 4 (mortality of at least 70% and less than 90%); K: redroot pigweed, herbicidal effect (redroot pigweed [24]): 0 (mortality of less than 5% (almost ineffective)); L: common lambsquater, herbicidal effect (common lambsquater [25]): 4 (mortality of at least 70% and less than 90%); O: beadstraw, herbicidal effect (beadstraw): 3 (mortality of at least 40% and less than 70%); E: giant foxtail, herbicidal effect (giant foxtail [26]): 4 (mortality of at least 70% and less than 90%); M: posumbu knotweed, herbicidal effect (posumbu knotweed [27]): 0 (mortality of less than 5% (almost ineffective)); B: bulrush, herbicidal effect (evaluation scale 0-5) (bulrush [28]): 5 (mortality of 90% or above (nearly complete death)); A: barnyardgrass, herbicidal effect (evaluation scale 0-5) (barnyardgrass [29]): 5 (mortality of 90% or above (nearly complete death)); C: ducksalad, herbicidal effect (evaluation scale 0-5) (ducksalad [30]): 4 (mortality of at least 70% and less than 90%)
2 | CCN1COCN(Cc2ccccc2N(C(=O)OCC(C)C)S(=O)(=O)C(F)(F)F)C1=O [IV-8] | 5 (mortality of 90% or above (nearly complete death)) | 5 (mortality of 90% or above (nearly complete death)) | 4 (mortality of at least 70% and less than 90%) | 0 (mortality of less than 5% (almost ineffective)) | 0 (mortality of less than 5% (almost ineffective)) | 0 (mortality of less than 5% (almost ineffective)) | 0 (mortality of less than 5% (almost ineffective)) | 4 (mortality of at least 70% and less than 90%) | 0 (mortality of less than 5% (almost ineffective)) | 5 (mortality of 90% or above (nearly complete death)) | 1 (mortality of at least 5% and less than 20%) | 0 (mortality of less than 5% (almost ineffective)) | 0 (mortality of less than 5% (almost ineffective)) | 1 (mortality of at least 5% and less than 20%) | 0 (mortality of less than 5% (almost ineffective)) | 0 (mortality of less than 5% (almost ineffective)) | 3 (mortality of at least 40% and less than 70%) | 0 (mortality of less than 5% (almost ineffective)) | 3 (mortality of at least 40% and less than 70%) | 0 (mortality of less than 5% (almost ineffective)) | A: barnyardgrass, herbicidal effect (barnyardgrass [20]): 5 (mortality of 90% or above (nearly complete death)); J: common ragweed, herbicidal effect (common ragweed [21]): 3 (mortality of at least 40% and less than 70%); G: water foxtail, herbicidal effect (water foxtail [22]): 5 (mortality of 90% or above (nearly complete death)); D: large crabgrass, herbicidal effect (large crabgrass [23]): 4 (mortality of at least 70% and less than 90%); K: redroot pigweed, herbicidal effect (redroot pigweed [24]): 0 (mortality of less than 5% (almost ineffective)); L: common lambsquater, herbicidal effect (common lambsquater [25]): 0 (mortality of less than 5% (almost ineffective)); O: beadstraw, herbicidal effect (beadstraw): 3 (mortality of at least 40% and less than 70%); E: giant foxtail, herbicidal effect (giant foxtail [26]): 4 (mortality of at least 70% and less than 90%); M: posumbu knotweed, herbicidal effect (posumbu knotweed [27]): 0 (mortality of less than 5% (almost ineffective)); B: bulrush, herbicidal effect (evaluation scale 0-5) (bulrush [28]): 5 (mortality of 90% or above (nearly complete death)); A: barnyardgrass, herbicidal effect (evaluation scale 0-5) (barnyardgrass [29]): 5 (mortality of 90% or above (nearly complete death)); C: ducksalad, herbicidal effect (evaluation scale 0-5) (ducksalad [30]): 4 (mortality of at least 70% and less than 90%)
